Measured values taken from patent publication EP2363135B1, “Anti-jellyfish compositions” (Antonio Puig, S.A., priority 2010, dated 2011).
Read-outs that look alike come from different tables or passages of the source.

How the values were obtained:
Pelagia noctiluca = assay: in vitro inhibition of cnidocyst discharge, physical contact with a gelatin probe; assay type: cell-based; conditions: 0.5 M in gelatin probe; for Discharged cnidocysts/mm^2 (%): control = 100; for Inhibition (%): versus control
Procedure: The efficacy of plant extracts and phytocompounds, in inhibiting cnidocyst discharge of Pelagia noctiluca (which is one of the most common species along the Mediterranean Sea) was evaluated by physical contact with a gelatin probe. Said probes, besides stimulating the cnidocyte battery, retained the different types of discharged cnidocysts that can have different sizes, thereby allowing a quantitative evaluation of the response.
Each gelatin probe was made coating one end of a 6 cm length of monofilament fishing line (1 mm diameter) with 25% (w/v) gelatin in deionized water and then placed in a humidified atmosphere during 30 minutes for gelatin solidification. The different substances to be tested were dissolved in deionized water at selected concentrations before the addition of gelatin: oat extract (Burgundi Cosmetics) and tea extract (Symrise lberica) were used at a final concentration of active agent of 0.025 % (w/v); dipotassium glycyrrhizate and hydroxytyrosol were used at a concentration of 0.5 M. Plain gelatin covered probes (no embebed active compound) were used as controls and represented maximum discharge figures.
After solidification, each gelatin probe was gently wiped across oral arms of Pelagia noctiluca 5 times from 1 to 5 seconds in the tanks. The probes were then placed in humidified atmosphere plates and observed under a steroemicroscope for cnidocyst quantification. Individual cnidocysts that had discharged into the gelatin probes were counted in 7 different fields of view and the mean value was calculated. Results are the average of triplicate probes.
An inhibitory effect was considered if the substance diminished the number of discharged nematocytes per mm^2 of gelatin probe as compared with controls.
The graphical representation of the interaction between two active compounds could be expressed as follows. […] The straight line connecting the effects of both substances on their own is the locus of points that will produce this effect in a simple additive combination, the additivity line.
FIG. 1 and FIG. 2 represent, respectively, the interaction between oat extract and lanthanum and tea extract and lanthanum in the inhibition of cnidocyst discharge. The number of discharged cnidocysts in Pelagia noctiluca was analysed for each combination of active agents by physical contact with a gelatin probe as described in Example 2. The doses of each of the constituents are referred as concentrations of active agent, i.e. of pure oat or green tea extract, and lanthanum cation.

[1] = test system: in situ cnidocytes of Pelagia noctiluca (Scyphozoa); conditions: cited from earlier work

Row | Structure (SMILES) | Discharged cnidocysts/mm^2 (%) (Pelagia noctiluca) | Inhibition (%) (Pelagia noctiluca) | cnidocyst discharge ([1]; oral arms previously treated with 20 µmol/L) | cnidocyst discharge ([1]; oral arms previously treated with 2 mmol/L)
1 | CC1(C)[C@@H](O[C@H]2O[C@H](C(=O)O)[C@@H](O)[C@H](O)[C@H]2O[C@@H]2O[C@H](C(=O)O)[C@@H](O)[C@H](O)[C@H]2O)CC[C@]2(C)[C@H]3C(=O)C=C4[C@@H]5C[C@@](C)(C(=O)O)CC[C@]5(C)CC[C@@]4(C)[C@]3(C)CC[C@@H]12 [Dipotassium glycyrrhizate, dipotassium glycyrrhizate] | 32,7% | -67,3% |  | 
2 | [Gd+3] [Gd^3+, gadolinium] |  |  | the discharge was inhibited | 
3 | [La+3] [La^3+, lanthanum] |  |  |  | the discharge was inhibited
4 | OCCc1ccc(O)c(O)c1 [WHidroxytyrosol, hydroxytyrosol] | 43,6% | -56,4% |  | 
